# How the values were obtained:
# Test in all cases: relative viability (nuclei count vs DMSO), 5 days (fraction); higher = more cells survive
# 201T = system: 201T
# Outline: (§1)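 The day after seeding in 1536-well plates, lung cancer cell lines were treated by pin tool with a single drug, or with a fixed anchor-drug dose together with five library-drug doses (not always all listed) in √10 steps. After 5 days, a combined fix-and-stain solution (final 0.05% Triton X-100, 1% formaldehyde, 1 ug/ml Hoechst) was added. Nuclei counted on 4× images gave relative viability as treated counts over vehicle counts, reported as the median of duplicate plates.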
# A-427 = system: A-427
# Outline: as §1
# COR-L23 = system: COR-L23
# Outline: as §1
# H3255 = system: H3255
# Outline: as §1
# HCC-44 = system: HCC-44
# Outline: as §1
# LC-2-ad = system: LC-2-ad
# Outline: as §1
# LCLC-103H = system: LCLC-103H
# Outline: as §1
# LCLC-97TM1 = system: LCLC-97TM1
# Outline: as §1
# LK-2 = system: LK-2
# Outline: as §1
# LU99A = system: LU99A
# Outline: as §1
# NCI-H1650 = system: NCI-H1650
# Outline: as §1
# NCI-H1793 = system: NCI-H1793
# Outline: as §1
# NCI-H2347 = system: NCI-H2347
# Outline: as §1
# NCI-H23 = system: NCI-H23
# Outline: as §1
# NCI-H460 = system: NCI-H460
# Outline: as §1
# NCI-H596 = system: NCI-H596
# Outline: as §1
# NCI-H727 = system: NCI-H727
# Outline: as §1
# PC-14 = system: PC-14
# Outline: as §1
# PC-3 [JPC-3] = system: PC-3 [JPC-3]
# Outline: as §1
# SW 1573 = system: SW 1573
# Outline: as §1
# SW 900 = system: SW 900
# Outline: as §1
structure (smiles),measurement,setting,value
CCN(CC)CCCCNc1ncc2cc(-c3cc(OC)cc(OC)c3)c(NC(=O)NC(C)(C)C)nc2n1 + Nc1ncn([C@H]2C[C@H](O)[C@@H](CO)O2)c(=O)n1 [Decitabine] (partner 2 µM),relative viability,201T; first compound 0.01 µM,0.864
same,relative viability,201T; first compound 0.03162 µM,0.847
same,relative viability,201T; first compound 0.1 µM,0.86
same,relative viability,201T; first compound 0.3162 µM,0.857
same,relative viability,201T; first compound 1 µM,0.83
same,relative viability,A-427; first compound 0.01 µM,0.626
same,relative viability,A-427; first compound 0.03162 µM,0.506
same,relative viability,A-427; first compound 0.1 µM,0.518
same,relative viability,A-427; first compound 0.3162 µM,0.548
same,relative viability,A-427; first compound 1 µM,0.524
same,relative viability,COR-L23; first compound 0.01 µM,0.4
same,relative viability,COR-L23; first compound 0.03162 µM,0.445
same,relative viability,COR-L23; first compound 0.1 µM,0.461
same,relative viability,COR-L23; first compound 0.3162 µM,0.442
same,relative viability,COR-L23; first compound 1 µM,0.43
same,relative viability,H3255; first compound 0.01 µM,0.453
same,relative viability,H3255; first compound 0.1 µM,0.65
same,relative viability,H3255; first compound 0.3162 µM,0.712
same,relative viability,H3255; first compound 1 µM,0.448
same,relative viability,HCC-44; first compound 0.01 µM,0.944
same,relative viability,HCC-44; first compound 0.03162 µM,0.915
same,relative viability,HCC-44; first compound 0.1 µM,1.02
same,relative viability,HCC-44; first compound 0.3162 µM,0.949
same,relative viability,HCC-44; first compound 1 µM,0.979
same,relative viability,LC-2-ad; first compound 0.01 µM,0.827
same,relative viability,LC-2-ad; first compound 0.03162 µM,0.81
same,relative viability,LC-2-ad; first compound 0.1 µM,0.823
same,relative viability,LC-2-ad; first compound 0.3162 µM,0.852
same,relative viability,LC-2-ad; first compound 1 µM,0.775
same,relative viability,LCLC-103H; first compound 0.01 µM,0.775
same,relative viability,LCLC-103H; first compound 0.03162 µM,0.782
same,relative viability,LCLC-103H; first compound 0.1 µM,0.758
same,relative viability,LCLC-103H; first compound 0.3162 µM,0.809
same,relative viability,LCLC-103H; first compound 1 µM,0.602
same,relative viability,LCLC-97TM1; first compound 0.01 µM,0.269
same,relative viability,LCLC-97TM1; first compound 0.03162 µM,0.251
same,relative viability,LCLC-97TM1; first compound 0.1 µM,0.321
same,relative viability,LCLC-97TM1; first compound 0.3162 µM,0.272
same,relative viability,LCLC-97TM1; first compound 1 µM,0.255
same,relative viability,LK-2; first compound 0.01 µM,0.305
same,relative viability,LK-2; first compound 0.03162 µM,0.268
same,relative viability,LK-2; first compound 0.1 µM,0.192
same,relative viability,LK-2; first compound 0.3162 µM,0.217
same,relative viability,LK-2; first compound 1 µM,0.175
same,relative viability,LU99A; first compound 0.01 µM,1.01
same,relative viability,LU99A; first compound 0.03162 µM,0.82
same,relative viability,LU99A; first compound 0.1 µM,0.861
same,relative viability,LU99A; first compound 0.3162 µM,0.944
same,relative viability,LU99A; first compound 1 µM,0.79
same,relative viability,NCI-H1650; first compound 0.01 µM,0.398
same,relative viability,NCI-H1650; first compound 0.03162 µM,0.381
same,relative viability,NCI-H1650; first compound 0.1 µM,0.397
same,relative viability,NCI-H1650; first compound 0.3162 µM,0.368
same,relative viability,NCI-H1650; first compound 1 µM,0.384
same,relative viability,NCI-H1793; first compound 0.01 µM,0.496
same,relative viability,NCI-H1793; first compound 0.03162 µM,0.464
same,relative viability,NCI-H1793; first compound 0.1 µM,0.56
same,relative viability,NCI-H1793; first compound 0.3162 µM,0.472
same,relative viability,NCI-H1793; first compound 1 µM,0.352
same,relative viability,NCI-H2347; first compound 0.01 µM,0.573
same,relative viability,NCI-H2347; first compound 0.03162 µM,0.62
same,relative viability,NCI-H2347; first compound 0.1 µM,0.623
same,relative viability,NCI-H2347; first compound 0.3162 µM,0.626
same,relative viability,NCI-H2347; first compound 1 µM,0.578
same,relative viability,NCI-H23; first compound 0.01 µM,0.297
same,relative viability,NCI-H23; first compound 0.03162 µM,0.307
same,relative viability,NCI-H23; first compound 0.1 µM,0.292
same,relative viability,NCI-H23; first compound 0.3162 µM,0.355
same,relative viability,NCI-H23; first compound 1 µM,0.326
same,relative viability,NCI-H460; first compound 0.01 µM,0.505
same,relative viability,NCI-H460; first compound 0.03162 µM,0.591
same,relative viability,NCI-H460; first compound 0.1 µM,0.645
same,relative viability,NCI-H460; first compound 0.3162 µM,0.584
same,relative viability,NCI-H460; first compound 1 µM,0.412
same,relative viability,NCI-H596; first compound 0.03162 µM,1.15
same,relative viability,NCI-H596; first compound 0.1 µM,1.03
same,relative viability,NCI-H596; first compound 0.3162 µM,1.01
same,relative viability,NCI-H596; first compound 1 µM,0.893
same,relative viability,NCI-H727; first compound 0.01 µM,0.752
same,relative viability,NCI-H727; first compound 0.03162 µM,0.871
same,relative viability,NCI-H727; first compound 0.1 µM,0.871
same,relative viability,NCI-H727; first compound 0.3162 µM,1.09
same,relative viability,NCI-H727; first compound 1 µM,0.717
same,relative viability,PC-14; first compound 0.01 µM,0.239
same,relative viability,PC-14; first compound 0.03162 µM,0.298
same,relative viability,PC-14; first compound 0.1 µM,0.262
same,relative viability,PC-14; first compound 0.3162 µM,0.249
same,relative viability,PC-14; first compound 1 µM,0.228
same,relative viability,PC-3 [JPC-3]; first compound 0.03162 µM,0.708
same,relative viability,PC-3 [JPC-3]; first compound 0.1 µM,0.928
same,relative viability,PC-3 [JPC-3]; first compound 0.3162 µM,0.851
same,relative viability,PC-3 [JPC-3]; first compound 1 µM,0.804
same,relative viability,SW 1573; first compound 0.01 µM,0.441
same,relative viability,SW 1573; first compound 0.03162 µM,0.528
same,relative viability,SW 1573; first compound 0.1 µM,0.583
same,relative viability,SW 1573; first compound 0.3162 µM,0.591
same,relative viability,SW 1573; first compound 1 µM,0.435
same,relative viability,SW 900; first compound 0.01 µM,0.509
same,relative viability,SW 900; first compound 0.03162 µM,0.401
same,relative viability,SW 900; first compound 0.1 µM,0.459
same,relative viability,SW 900; first compound 0.3162 µM,0.416
same,relative viability,SW 900; first compound 1 µM,0.437
COc1nc(C)cnc1NS(=O)(=O)c1cccnc1-c1ccc(-c2nnco2)cc1 [Zibotentan] + NC(=O)Nc1cc(-c2cccc(F)c2)sc1C(=O)N[C@H]1CCCNC1 [AZD7762] (partner 0.2 µM),relative viability,201T; first compound 0.08 µM,0.644
same,relative viability,201T; first compound 0.253 µM,0.604
same,relative viability,201T; first compound 0.8 µM,0.624
same,relative viability,201T; first compound 2.53 µM,0.569
same,relative viability,A-427; first compound 0.08 µM,0.905
same,relative viability,A-427; first compound 0.253 µM,0.666
same,relative viability,A-427; first compound 0.8 µM,0.655
same,relative viability,A-427; first compound 2.53 µM,0.834
same,relative viability,H3255; first compound 0.08 µM,0.901
same,relative viability,H3255; first compound 0.253 µM,0.87
same,relative viability,H3255; first compound 0.8 µM,0.825
same,relative viability,H3255; first compound 2.53 µM,0.799
same,relative viability,HCC-44; first compound 0.08 µM,1.01
same,relative viability,HCC-44; first compound 0.253 µM,0.962
same,relative viability,HCC-44; first compound 0.8 µM,0.968
same,relative viability,HCC-44; first compound 2.53 µM,1.03
same,relative viability,LC-2-ad; first compound 0.08 µM,0.785
same,relative viability,LC-2-ad; first compound 0.253 µM,0.781
same,relative viability,LC-2-ad; first compound 0.8 µM,0.791
same,relative viability,LC-2-ad; first compound 2.53 µM,0.905
same,relative viability,LCLC-103H; first compound 0.08 µM,0.77
same,relative viability,LCLC-103H; first compound 0.253 µM,0.786
same,relative viability,LCLC-103H; first compound 0.8 µM,0.778
same,relative viability,LCLC-103H; first compound 2.53 µM,0.752
same,relative viability,LCLC-97TM1; first compound 0.08 µM,0.433
same,relative viability,LCLC-97TM1; first compound 0.253 µM,0.165
same,relative viability,LCLC-97TM1; first compound 0.8 µM,0.12
same,relative viability,LCLC-97TM1; first compound 2.53 µM,0.253
same,relative viability,LK-2; first compound 0.08 µM,0.479
same,relative viability,LK-2; first compound 0.253 µM,0.327
same,relative viability,LK-2; first compound 0.8 µM,0.441
same,relative viability,LK-2; first compound 2.53 µM,0.282
same,relative viability,LU99A; first compound 0.08 µM,0.425
same,relative viability,LU99A; first compound 0.253 µM,0.412
same,relative viability,LU99A; first compound 0.8 µM,0.228
same,relative viability,LU99A; first compound 2.53 µM,0.429
same,relative viability,NCI-H1793; first compound 0.08 µM,0.658
same,relative viability,NCI-H1793; first compound 0.253 µM,0.341
same,relative viability,NCI-H1793; first compound 0.8 µM,0.37
same,relative viability,NCI-H1793; first compound 2.53 µM,0.495
same,relative viability,NCI-H2347; first compound 0.08 µM,0.733
same,relative viability,NCI-H2347; first compound 0.253 µM,0.723
same,relative viability,NCI-H2347; first compound 0.8 µM,0.742
same,relative viability,NCI-H2347; first compound 2.53 µM,0.945
same,relative viability,NCI-H23; first compound 0.08 µM,0.224
same,relative viability,NCI-H23; first compound 0.253 µM,0.238
same,relative viability,NCI-H23; first compound 0.8 µM,0.196
same,relative viability,NCI-H23; first compound 2.53 µM,0.26
same,relative viability,NCI-H460; first compound 0.08 µM,0.784
same,relative viability,NCI-H460; first compound 0.253 µM,0.539
same,relative viability,NCI-H460; first compound 0.8 µM,0.251
same,relative viability,NCI-H460; first compound 2.53 µM,0.749
same,relative viability,NCI-H596; first compound 0.08 µM,1.13
same,relative viability,NCI-H596; first compound 0.253 µM,1.01
same,relative viability,NCI-H596; first compound 0.8 µM,1.06
same,relative viability,NCI-H596; first compound 2.53 µM,1.22
same,relative viability,NCI-H727; first compound 0.08 µM,0.575
same,relative viability,NCI-H727; first compound 0.253 µM,0.572
same,relative viability,NCI-H727; first compound 0.8 µM,0.497
same,relative viability,NCI-H727; first compound 2.53 µM,0.296
same,relative viability,PC-14; first compound 0.08 µM,0.445
same,relative viability,PC-14; first compound 0.253 µM,0.264
same,relative viability,PC-14; first compound 0.8 µM,0.324
same,relative viability,PC-14; first compound 2.53 µM,0.369
same,relative viability,PC-3 [JPC-3]; first compound 0.08 µM,0.711
same,relative viability,PC-3 [JPC-3]; first compound 0.253 µM,0.654
same,relative viability,PC-3 [JPC-3]; first compound 0.8 µM,0.733
same,relative viability,PC-3 [JPC-3]; first compound 2.53 µM,0.861
same,relative viability,SW 900; first compound 0.08 µM,0.68
same,relative viability,SW 900; first compound 0.253 µM,0.561
same,relative viability,SW 900; first compound 0.8 µM,0.495
same,relative viability,SW 900; first compound 2.53 µM,0.725
